Source: ChEMBL document CHEMBL1201862, “PubChem BioAssay data set” (2004)
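Growth conditions: 96-well plates. Treatment: test compound, 48 hours, 5 concentrations. Analysis: linear interpolation between bracketing concentrations; unreached endpoints set to highest concentration. Abbreviation: GI50, concentration required for 50% inhibition of growth.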 The source made the active and inactive calls. Cut-off read from the data, not from the text of the source: active = GI50 up to about 1.1 µM and inactive = higher.

Legend:
Assay in all cases: DTP human tumour cell line panel, 48 h
[1] = system: 786-0
[2] = system: A498
[3] = system: A549
[4] = system: ACHN
[5] = system: BT-549
[6] = system: CAKI-1
[7] = system: CCRF-CEM
[8] = system: COLO 205
[9] = system: DU-145
[10] = system: EKVX
[11] = system: HCC 2998
[12] = system: HCT-116
[13] = system: HCT-15
[14] = system: HL-60
[15] = system: HOP-62
[16] = system: HOP-92
[17] = system: HT-29
[18] = system: Hs-578T
[19] = system: IGROV-1
[20] = system: K562
[21] = system: KM12
[22] = system: LOX IMVI
[23] = system: M14
[24] = system: MCF7
[25] = system: MDA-MB-231
[26] = system: MDA-MB-435
[27] = system: MDA-N
[28] = system: MOLT-4
[29] = system: Malme-3M
[30] = system: NCI-H226
[31] = system: NCI-H23
[32] = system: NCI-H460
[33] = system: NCI-H522
[34] = system: NCI/ADR-RES
[35] = system: OVCAR-3
[36] = system: OVCAR-4
[37] = system: OVCAR-5
[38] = system: OVCAR-8
[39] = system: PC-3
[40] = system: RPMI-8226
[41] = system: RXF 393
[42] = system: SF-268
[43] = system: SF-295
[44] = system: SF-539
[45] = system: SK-MEL-28
[46] = system: SK-MEL-2
[47] = system: SK-MEL-5
[48] = system: SK-OV-3
[49] = system: SN12C
[50] = system: SNB-19
[51] = system: SNB-75
[52] = system: SW-620
[53] = system: T47D
[54] = system: TK-10
[55] = system: U-251
[56] = system: UACC-257
[57] = system: UACC-62
[58] = system: UO-31

SMILES: O=C(N/C(=C\c1ccccc1)C1Nc2ccccc2C(=O)O1)c1ccccc1 (stereo not drawn)
- GI50 [1]: 24.5 µM (inactive)
- GI50 [2]: > 100 µM (inactive)
- GI50 [3]: 87.5 µM (inactive)
- GI50 [4]: 39.5 µM (inactive)
- GI50 [5]: 21.5 µM (inactive)
- GI50 [6]: > 100 µM (inactive)
- GI50 [7]: 19.1 µM (inactive)
- GI50 [8]: 30.4 µM (inactive)
- GI50 [9]: 54.1 µM (inactive)
- GI50 [10]: > 100 µM (inactive)
- GI50 [11]: 19.8 µM (inactive)
- GI50 [12]: 18.3 µM (inactive)
- GI50 [13]: 31.8 µM
- GI50 [14]: 12.4 µM (inactive)
- GI50 [15]: 20.4 µM (inactive)
- GI50 [16]: > 100 µM (inactive)
- GI50 [17]: 32.7 µM (inactive)
- GI50 [18]: 30.3 µM (inactive)
- GI50 [19]: 34.3 µM (inactive)
- GI50 [20]: 21.5 µM (inactive)
- GI50 [21]: 15.8 µM (inactive)
- GI50 [22]: 18.2 µM (inactive)
- GI50 [23]: 20.2 µM (inactive)
- GI50 [24]: 45.8 µM (inactive)
- GI50 [25]: 41.3 µM (inactive)
- GI50 [26]: 34.5 µM (inactive)
- GI50 [27]: 23.7 µM (inactive)
- GI50 [28]: 18.7 µM (inactive)
- GI50 [29]: 16.6 µM (inactive)
- GI50 [30]: 25.6 µM (inactive)
- GI50 [31]: 37.5 µM (inactive)
- GI50 [32]: 16.6 µM (inactive)
- GI50 [33]: 16.3 µM (inactive)
- GI50 [34]: 25.9 µM (inactive)
- GI50 [35]: 27.3 µM (inactive)
- GI50 [36]: 53.7 µM (inactive)
- GI50 [37]: > 100 µM (inactive)
- GI50 [38]: 21.4 µM (inactive)
- GI50 [39]: > 100 µM (inactive)
- GI50 [40]: 23.3 µM (inactive)
- GI50 [41]: 23.6 µM (inactive)
- GI50 [42]: 44 µM (inactive)
- GI50 [43]: 37 µM (inactive)
- GI50 [44]: 20.2 µM (inactive)
- GI50 [45]: 23.7 µM (inactive)
- GI50 [46]: 22.5 µM (inactive)
- GI50 [47]: 19.6 µM (inactive)
- GI50 [48]: 55.6 µM (inactive)
- GI50 [49]: 28.2 µM (inactive)
- GI50 [50]: 33.8 µM (inactive)
- GI50 [51]: 38.8 µM (inactive)
- GI50 [52]: 23.6 µM (inactive)
- GI50 [53]: > 100 µM (inactive)
- GI50 [54]: > 100 µM (inactive)
- GI50 [55]: 22.4 µM (inactive)
- GI50 [56]: 20.6 µM (inactive)
- GI50 [57]: 27.5 µM (inactive)
- GI50 [58]: 19.6 µM (inactive)
